Assay results as given in patent US9827228B2, “Opioid receptor modulators and use thereof” (priority 2015, dated 2017).
Read-outs that look alike come from different tables or passages of the source.

Biological target: T1, hMOR (Homo sapiens, UniProt P35372)
T1 construct: host or cells: CHO-K1
Test: cell-based
Format: cell-based
Conditions: for AUC: AUC of [Ca2+]i fluorescence
Method: Chinese hamster ovary (CHO)-K1 cells expressing hMOR and Gα15 (CHO-K1/MOR/Gα15) were cultured in F12 medium (GIBCO) supplemented with 10 μg/mL Hygromycin B (Invivogen), 20 μg/mL Zeocin (Invivogen) and P/S/F (100 units/mL penicillin, 100 μg/mL streptomycin, 10% fetal bovine serum). The cultures were incubated at 37° C. in a humidified 5% CO2 incubator.
One day prior to running the assay, CORNING® black 96-well assay plates having a clear flat bottom were coated with a 0.1 mg/mL Poly-L-Lysine solution. CHO-K1/MOR/Gα15 cells were suspended in F12 medium and plated at a density of about 8×10^4 cells/well in 200 μL medium. Cells were incubated under a humidified atmosphere of 10% CO2 at 37° C. overnight to reach an 80-90% confluent cell monolayer before the assay. On the day of the assay, 150 μL medium was removed from each well of the plates. To each well were added FLIPR® calcium assay reagents (Molecular Devices Corporation, Sunnyvale, Calif., USA; 50 μL) dissolved in 1× assay buffer (HBSS: KCl 5 mM, KH2PO4 0.3 mM, NaCl 138 mM, NaHCO3 4 mM, Na2HPO4 0.3 mM, d-glucose 5.6 mM, with additional 20 mM HEPES and […], pH 7.4) and 2.5 mM probenecid. After incubation at 37° C. for 1 hour, a test compound, alone or together with naloxone (a MOR antagonist), was also added to each well. Using a FlexStationlll instrument (Molecular Devices Corp.), increments of the [Ca^2+]i fluorescence after robotic injection of the cell suspension were monitored at 1.52 s intervals using the excitation wavelength of 485 nm and the emission wavelength of 525 nm. The [Ca^2+]i fluorescence was measured up to 90 s after the injection. The fluorescence intensity from 6 to 12 wells of cells were averaged and the relative amount of [Ca^2+]i release was determined by integrating the AUC of the [Ca^2+]i fluorescence averages.
A CHO-K1 cell line expressing MOR and Gα15 (GenScript) was used to set up a sensitive high-throughput screen (HTS) system. […] The HTS was performed in the absence or presence of naloxone (an opioid antagonist; 20 nM), to identify AAMs.

[1] = combined with naloxone, CHO-K1/MOR/Gα15 cells
[2] = EC50, combined with naloxone, CHO-K1/MOR/Gα15 cells
[3] = combined with naloxone, CHO-K1/MOR/Gα15 cells, read-out: EC50

T1 sequence (P35372 whole entry): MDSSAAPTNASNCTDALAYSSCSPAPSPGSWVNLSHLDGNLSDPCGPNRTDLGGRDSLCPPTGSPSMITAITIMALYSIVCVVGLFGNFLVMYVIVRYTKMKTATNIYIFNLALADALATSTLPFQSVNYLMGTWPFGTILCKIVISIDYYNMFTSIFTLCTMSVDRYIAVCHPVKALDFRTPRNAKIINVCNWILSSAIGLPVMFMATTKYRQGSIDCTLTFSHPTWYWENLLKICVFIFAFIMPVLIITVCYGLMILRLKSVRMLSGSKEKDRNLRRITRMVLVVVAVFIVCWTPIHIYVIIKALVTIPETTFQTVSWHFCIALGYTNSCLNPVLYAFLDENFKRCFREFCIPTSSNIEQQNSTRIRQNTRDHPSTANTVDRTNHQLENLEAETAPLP

Row | Structure (SMILES) | AUC [1] | EC50 (EC50, combined with naloxone) [µM] | EC50 [2] [µM] | EC50 [3] [µM]
1 | CCc1nc(C)c(-c2csc(Nc3ccccc3CC)n2)s1 [Compound 95, 2′-Ethyl-N-(2-ethylphenyl)-4′-methyl-4,5′-bi-1,3-thiazol-2-amine] | + (+: >5000) | < 10 | 3 to 10 | –
2 | CCc1cc(Br)ccc1Nc1nc(-c2sc(C)nc2C)cs1 [Compound 49, N-(4-Bromo-2-ethylphenyl)-2′,4′-dimethyl-4,5′-bi-1,3-thiazol-2-amine] | − (−: <5000) | < 10 | 3 to 10 | –
3 | CCc1ccccc1Nc1ncc(-c2sc(C)nc2C)o1 [Compound 107, 5-(2,4-Dimethyl-1,3-thiazol-5-yl)-N-(2-ethylphenyl)-1,3-oxazol-2-amine] | + (+: >5000) | – | – | > 10
4 | Cc1cc(C)c(Nc2nc(-c3sc(C)nc3C)cs2)c(C)c1 [Compound 17, 2′,4′-Dimethyl-N-(2,4,6-trimethylphenyl)-4,5′-bi-1,3-thiazol-2-amine] | + (+: >5000) | < 10 | 3 to 10 | –
5 | Cc1nc(C)c(-c2csc(Nc3c(C)cccc3F)n2)s1 [Compound 33, N-(2-Fluoro-6-methylphenyl)-2′,4′-dimethyl-4,5′-bi-1,3-thiazol-2-amine] | + (+: >5000) | < 10 | 3 to 10 | –
6 | CCc1cccc(C)c1Nc1nc(-c2sc(C)nc2C)cs1 [Compound 47, N-(2-Ethyl-6-methylphenyl)-2′,4′-dimethyl-4,5′-bi-1,3-thiazol-2-amine] | + (+: >5000) | < 10 | 1 to 3 | –
7 | Cc1nc(C)c(-c2csc(N)n2)s1 [Compound 130, 2′,4′-Dimethyl-4,5′-bi-1,3-thiazol-2-amine] | − (−: <5000) | – | – | > 10
8 | Cc1csc(Nc2nc(-c3sc(C)nc3C)cs2)n1 [Compound 114, 2′,4′-Dimethyl-N-(4-methyl-1,3-thiazol-2-yl)-4,5′-bi-1,3-thiazol-2-amine] | − (−: <5000) | – | – | > 10
9 | CCOC(=O)c1cc(-c2csc(Nc3ccccc3CC)n2)on1 [Compound 128, Ethyl 5-{2-[(2-ethylphenyl)amino]-1,3-thiazol-4-yl}-1,2-oxazole-3-carboxylate] | − (−: <5000) | – | – | > 10
10 | Cc1nc(C)c(-c2csc(Nc3ccccc3N3CCCCC3)n2)s1 [Compound 68, 2′,4′-Dimethyl-N-[2-(1-piperidinyl)phenyl]-4,5′-bi-1,3-thiazol-2-amine] | − (−: <5000) | – | – | > 10
11 | COc1cc(C)c(Nc2nc(-c3sc(C)nc3C)cs2)cc1OC [Compound 27, N-(4,5-Dimethoxy-2-methylphenyl)-2′,4′-dimethyl-4,5′-bi-1,3-thiazol-2-amine] | − (−: <5000) | – | – | > 10
12 | Cc1nc(C)c(-c2csc(Nc3ccccc3Oc3ccccc3)n2)s1 [Compound 6, N-(2-Phenoxyphenyl)-2′,4′-dimethyl-4,5′-bi-1,3-thiazol-2-amine] | − (−: <5000) | – | – | > 10
13 | COC(=O)Cc1cnc(Nc2nc(-c3sc(C)nc3C)cs2)s1 [Compound 111, Methyl {2-[(2′,4′-dimethyl-4,5′-bi-1,3-thiazol-2-yl)amino]-1,3-thiazol-5-yl}acetate] | − (−: <5000) | – | – | > 10
14 | Cc1ccc(Nc2nc(-c3sc(-c4ccccc4)nc3C)cs2)c(C)c1 [Compound 93, N-(2,4-Dimethylphenyl)-4′-methyl-2′-phenyl-4,5′-bi-1,3-thiazol-2-amine] | − (−: <5000) | – | – | > 10
15 | COc1cccc(Nc2nc(-c3sc(C)nc3C)cs2)c1C [Compound 85, N-(3-Methoxy-2-methylphenyl)-2′,4′-dimethyl-4,5′-bi-1,3-thiazol-2-amine] | + (+: >5000) | < 10 | 3 to 10 | –
16 | CCc1ccccc1Nc1nc(-c2ccccn2)cs1 [Compound 123, N-(2-Ethylphenyl)-4-(2-pyridinyl)-1,3-thiazol-2-amine] | − (−: <5000) | – | – | > 10
17 | CCc1ccccc1Nc1nc(-c2ccc3c(c2)OCCCO3)cs1 [Compound 122, 4-(3,4-Dihydro-2H-1,5-benzodioxepin-7-yl)-N-(2-ethylphenyl)-1,3-thiazol-2-amine] | − (−: <5000) | – | – | > 10
18 | CCc1ccccc1Nc1nc(-c2sc(N)nc2C)cs1 [Compound 100, N^2-(2-ethylphenyl)-4′-methyl-4,5′-bi-1,3-thiazole-2,2′-diamine] | − (−: <5000) | – | – | > 10

Row | Structure (SMILES) | AUC [1] | EC50 (EC50, combined with naloxone) [µM] | EC50 [2] [µM] | EC50 [3] [µM]
19 | COc1cccc(C)c1Nc1nc(-c2sc(C)nc2C)cs1 [Compound 4, N-(2-Methoxy-6-methylphenyl)-2′,4′-dimethyl-4,5′-bi-1,3-thiazol-2-amine] | + (+: >5000) | – | – | > 10
20 | Cc1nc(C)c(-c2csc(Nc3ccccc3N3CCOCC3)n2)s1 [Compound 70, 2′,4′-Dimethyl-N-[2-(4-morpholinyl)phenyl]-4,5′-bi-1,3-thiazol-2-amine] | − (−: <5000) | < 10 | 3 to 10 | –
21 | Cc1nc(C)c(-c2csc(Nc3ccc(Br)cc3C(F)(F)F)n2)s1 [Compound 43, N-[4-Bromo-2-(trifluoromethyl)phenyl]-2′,4′-dimethyl-4,5′-bi-1,3-thiazol-2-amine] | + (+: >5000) | – | – | > 10
22 | CCc1ccccc1Nc1nc(-c2nccs2)cs1 [Compound 126, N-(2-Ethylphenyl)-2,4′-bi-1,3-thiazol-2′-amine] | − (−: <5000) | – | – | > 10
23 | Cc1nc(C)c(-c2csc(Nc3ccccc3O)n2)s1 [Compound 65, 2-[(2′,4′-Dimethyl-4,5′-bi-1,3-thiazol-2-yl)amino]phenol] | + (+: >5000) | – | – | > 10
24 | Cc1cc(C)c(Nc2nc(-c3oc(C)nc3C)cs2)c(C)c1 [Compound 106, 4-(2,4-Dimethyl-1,3-oxazol-5-yl)-N-(2,4,6-trimethylphenyl)-1,3-thiazol-2-amine] | + (+: >5000) | < 10 | 3 to 10 | –
25 | Cc1nc(C)c(-c2csc(Nc3c(C)cc(F)cc3C)n2)s1 [Compound 55, N-(4-Fluoro-2,6-dimethylphenyl)-2′,4′-dimethyl-4,5′-bi-1,3-thiazol-2-amine] | + (+: >5000) | – | – | > 10
26 | CCc1ccccc1Nc1nc(-c2sc(-c3ccccc3)nc2C)cs1 [Compound 92, N-(2-Ethylphenyl)-4′-methyl-2′-phenyl-4,5′-bi-1,3-thiazol-2-amine] | − (−: <5000) | – | – | > 10
27 | Cc1nc(C)c(-c2csc(Nc3cccc(O)c3C)n2)s1 [Compound 89, 3-[(2′,4′-Dimethyl-4,5′-bi-1,3-thiazol-2-yl)amino]-2-methylphenol] | − (−: <5000) | – | – | > 10
28 | Cc1nc(C)c(-c2csc(Nc3ccccc3Cl)n2)s1 [Compound 8, N-(2-Chlorophenyl)-2′,4′-dimethyl-4,5′-bi-1,3-thiazol-2-amine] | − (−: <5000) | – | – | > 10
29 | Cc1nc(C)c(-c2csc(Nc3ccccc3F)n2)s1 [Compound 9, N-(2-Fluorophenyl)-2′,4′-dimethyl-4,5′-bi-1,3-thiazol-2-amine] | − (−: <5000) | – | – | > 10
30 | CCc1ccccc1Nc1nc(-c2sc(-c3ccc(Cl)cc3)nc2C)cs1 [Compound 94, 2′-(4-Chlorophenyl)-N-(2-ethylphenyl)-4′-methyl-4,5′-bi-1,3-thiazol-2-amine] | − (−: <5000) | – | – | > 10
31 | Cc1nc(C)c(-c2csc(Nc3c(C)cccc3C)n2)s1 [Compound 41, N-(2,6-Dimethylphenyl)-2′,4′-dimethyl-4,5′-bi-1,3-thiazol-2-amine] | − (−: <5000) | – | – | > 10
32 | Cc1nc(C)c(-c2csc(Nc3ccc(O)cc3C)n2)s1 [Compound 60, 4-[(2′,4′-Dimethyl-4,5′-bi-1,3-thiazol-2-yl)amino]-3-methylphenol] | − (−: <5000) | – | – | > 10
33 | Cc1nc(C)c(-c2csc(Nc3ncccc3C)n2)s1 [Compound 79, 2′,4′-Dimethyl-N-(3-methyl-2-pyridinyl)-4,5′-bi-1,3-thiazol-2-amine] | − (−: <5000) | – | – | > 10
34 | Cc1nc(C)c(-c2csc(Nc3cccc(Cl)c3C)n2)s1 [Compound 77, N-(3-Chloro-2-methylphenyl)-2′,4′-dimethyl-4,5′-bi-1,3-thiazol-2-amine] | − (−: <5000) | – | – | > 10
35 | CCc1ccccc1Nc1nccs1 [Compound 131, N-(2-Ethylphenyl)-1,3-thiazol-2-amine] | − (−: <5000) | – | – | > 10
